Consider four compounds from article PMC7615676, “Short-course combination treatment for experimental chronic Chagas disease” (Science translational medicine, 2023).

≈ marks a conversion by molar mass, not a printed value. Where two headings read alike, the source gives them in different places.

On the set-up of data set [1]: method as in PMID 21073628, PMID 20932171. The conditions noted are these: patients; cited from earlier work.
For data set [2], the system named is intracellular T. cruzi amastigotes, strain Silvio X10/7 A1. The experiment in a line: intracellular T. cruzi amastigote potency assay. The data set is classed as cell-based. The note with it: Trypanosoma cruzi.
Another data set addresses T. cruzi CYP51 (Trypanosoma cruzi, UniProt Q7Z1V1). The experiment in a line: T. cruzi CYP51 biochemical assay.
The nature of data set [3]: kinetic aqueous solubility (CLND). The data set is classed as physicochemical. The note with it: phosphate buffered saline, aqueous buffer, kinetic from dmso stock, pH 7.4. How it is done:
The eluent is quantified by suitably calibrated flow injection CLND. This assay has a dynamic range between the lower detection limit of 1 and 500 μM, governed by the protocol’s 1:20 dilution into pH 7.4 phosphate buffer solution from nominal 10 mM DMSO stock.

Another data set is described as follows: FaSSIF solubility assay. The note with it: pH 6.5, 4 h. The data set is classed as physicochemical. The procedure: Solubility of test compounds in fasted simulated intestinal fluid (FaSSIF) was determined at pH 6.5 after 4 h equilibration at rt. An amount of1 mL of FaSSIF buffer (3 mM sodium taurocholate, 0.75 mM lecithin in sodium phosphate buffer at pH 6.5) was added to manually weighed 1 mg of solid compound in a 2 mL HPLC autosampler vial. The resulting suspension was shaken at 900 rpm for 4 h at rt and then transferred to a Multiscreen HTS, 96-well solubility filter plate. The residual solid was removed by filtration. The supernatant solution was quantified by HPLC−UV using single-point calibration of a known concentration of the compound in DMSO. The dynamic range of the assay was 1−1000 μg/mL.

The subject of another data set is HepG2 cells. The experiment in a line: general cytotoxicity assay in HepG2 cells. The data set is classed as cell-based. The conditions noted are these: Homo sapiens, HepG2, 48 h, CellTiter-Glo. How it is done:
This assay was previously described ([36]). Briefly, actively growing HepG2 cells were removed from a T-175 TC flask using 5 ml Eagle’s MEM (containing 10 % FBS, 1 % NEAA, 1 % penicillin/ streptomycin. Carbon source is D-glucose at 1 g/l) and dispersed in the medium by repeated pipetting. Seeding density was checked to ensure that new monolayers were not more than 50 % confluent at the time of harvesting. Cell suspension was added to 500 ml of the same medium at a final density of 1.2 x 10^5 cells/ml. This cell suspension was dispensed (25 μl, 3000 cells per well) into 384-well clear-bottom plates using a Multidrop Combi dispenser. Prior to addition of the cell suspension, the screening compounds (250 nl) were predispensed into the plates with an EchoH liquid handler. Plates were incubated for 48 h at 37°C, 5% CO2. After incubation, plates equilibrated at room temperature for 30 min before proceeding to develop the luminescent signal. The signal developer, CellTiter-Glo Reagent, was allowed to equilibrate at room temperature for 30 min and added to the plates ([…]) using a Multidrop Combi dispenser. Plates were left for 10 min at room temperature for stabilization and then read using a ViewLux.

The nature of a further data set: Property Forecast Index. The data set is classed as physicochemical. The note with it: number of aromatic rings + ChromLogD at pH 7.4.
The next data set has as its system Vero host cells. The experiment in a line: cytotoxicity against host cells in intracellular amastigote assay. The data set is classed as cell-based. The note with it: host cell cytotoxicity; for EC50: Chlorocebus sabaeus, Vero.
The test system of data set [4] is T. cruzi culture derived trypomastigotes, strain Silvio X10/7 A1. Kind of data set: trypomastigote assay. The data set is classed as cell-based. The note with it: Trypanosoma cruzi. The procedure: Trypomastigote assays using strain Silvio X10/7 subclone A1 were carried out as described in ([19]). Parasite culture and potency determinations for panel of strains were performed as in ([19]). Strains used were M6241 clone 6 (DTU III), ERA clone 2 (DTU IV), PAH179 clone 5 (DTU V) and CL Brener-Luciferase (PpyRE9h-expressing T. cruzi, same strain that is used in animal model studies ([67])) (DTU VI). […] For Y strain compound exposure time was 3 days. Rate-of-kill assays were carried out as described in ([39]).

A short description of data set [5]: chromatographic LogD assay. The data set is classed as physicochemical. The note with it: reversed phase HPLC column (Gemini NX C18), pH 7.4; read-out: Chrom logD pH 7.4. How it is done:
The chromatographic hydrophobicity index (CHI) values were measured using reversed phase HPLC column (50 mm × 2 mm, 3 μm Gemini NX C18, Phenomenex, U.K.) with fast acetonitrile gradient at starting mobile phase at pH 7.4. CHI values were derived directly from the gradient retention times by using a calibration line obtained for standard compounds. The CHI value approximates to the volume % organic concentration when the compound elutes. CHI was linearly transformed into ChromlogD by least-squares fitting of experimental CHI values to calculated log P (ClogP) values for over 20K research compounds using the following formula: ChromlogD = 0.0857CHI − 2.00. The average error of the assay is ±3 CHI units or ± 0.25 ChromlogD.

The subject of data set [6] is intracellular T. cruzi Silvio X10/7 A1 in Vero cells. Kind of data set: washout outgrowth assay. The data set is classed as cell-based, Trypanosoma cruzi. The conditions noted are these: 8-days treatment, BNZ at 12.5× EC50 (Fig. S7). How it is done: Washout outgrowth assay: Vero cells were infected overnight in T600 flasks at a multiplicity of infection (MOI) 5 with T. cruzi Silvio X10/7 A1 trypomastigotes, followed by washing of the Vero monolayer to remove free trypomastigotes. 24 hours later the monolayer was trypsinised, 5.3 x 10^6 Vero cells were plated in T75 tissue culture flasks (in 20 ml MEM-Glutamax (ThermoFisher), 1% Fetal Calf Serum (FCS)), and treatment was started. For ten-day treatments, medium with compounds was replaced after the initial 5 days. For 16 day treatments the compounds were replaced every four days. For compound washout, all medium was aspirated, and flasks were washed three times with 10 ml serum-free MEM medium followed by a final aspiration and addition of 20 ml MEM-Glutamax (ThermoFisher) supplemented with 1% FCS. The cultures were then maintained until trypomastigotes were detected by light microscopy. Medium was replaced twice weekly and prior to each medium replacement microscopic evaluation was carried out (five fields per flask) for up to 60 days post washout. Robustness of the data was confirmed by profiling multiple compounds from the pyrrolopyrimidine series in a single experiment (compounds 2,3 and 4 in Fig. 2 and Fig. S17) as well as comparing results from independent experiments (compound 2 in Fig. 2, Fig. S5 and Fig. S7).

For data set [7], the system named is T. cruzi epimastigotes bearing mutations in cytochrome b. The experiment in a line: epimastigote drug sensitivity assay, cytochrome b mutant / resistant lines. The data set is classed as cell-based, Trypanosoma cruzi. The conditions noted are these: for EC50: Trypanosoma cruzi. How it is done: (§1) T. cruzi epimastigotes from the Silvio strain (MHOM/BR/78/Silvio; clone X10/7A) were grown at 28°C in RTH/FBS medium ([80]).
(§2) T. cruzi epimastigote assays carried out as described previously ([43]).
Compound-resistant cell lines were generated by subculturing clones of wild-type T. cruzi epimastigotes in the continuous presence of compound 3 or compound 5. Starting at sublethal concentrations, drug concentrations in 3 independent cultures were increased in a stepwise manner, usually by 2-fold. When parasites were able to survive and grow in compound concentrations equivalent to >30-fold their established EC50 value, they were cloned by limiting dilution in the presence of compound. Three independent clones were selected from each compound for further study.

Data set [8] relates to wild-type T. cruzi epimastigotes. The experiment in a line: epimastigote drug sensitivity assay, wild-type. The data set is classed as cell-based. The conditions noted are these: Trypanosoma cruzi. How it is done:
as §1, §2

For data set [9], the target named is T. cruzi complex III (epimastigote lysates) (Trypanosoma cruzi, UniProt Q9T479). Kind of data set: T. cruzi complex III assay. The conditions noted are these: decylubiquinol substrate. The data set is classed as biochemical. The procedure: Complex III activity within these lysates was monitored in the presence and absence of compound 3, compound 5 and related analogues from this series, using decylubiquinol as a pseudo-substrate ([43]).
Measurement of complex III activity and inhibition were performed as described previously ([43]).

Setting [10] is: intracellular amastigotes Silvio X10/7 A1, 96 h, ± SD, min. three experiments, read-out: Amastigotes pEC50 (converted).
[11] abbreviates: read-out: Vero pEC50 (converted).
Setting [12] is: read-out: Trypomastigotes pEC50 (converted).

T. cruzi CYP51, sequence (Q7Z1V1 whole entry): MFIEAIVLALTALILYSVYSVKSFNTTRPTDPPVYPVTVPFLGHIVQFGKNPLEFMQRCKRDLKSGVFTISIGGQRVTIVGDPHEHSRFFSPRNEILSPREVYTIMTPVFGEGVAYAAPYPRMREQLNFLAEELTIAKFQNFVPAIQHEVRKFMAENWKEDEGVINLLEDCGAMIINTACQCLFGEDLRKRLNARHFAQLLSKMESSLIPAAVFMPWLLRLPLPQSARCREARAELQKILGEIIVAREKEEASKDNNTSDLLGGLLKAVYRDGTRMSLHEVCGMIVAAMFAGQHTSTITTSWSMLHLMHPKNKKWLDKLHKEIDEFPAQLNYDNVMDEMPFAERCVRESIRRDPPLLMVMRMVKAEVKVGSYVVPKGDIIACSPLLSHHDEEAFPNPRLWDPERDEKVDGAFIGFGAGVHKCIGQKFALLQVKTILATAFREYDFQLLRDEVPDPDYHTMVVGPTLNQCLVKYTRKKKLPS
T. cruzi complex III (epimastigote lysates), sequence (Q9T479 entry or part of it, one chain of several): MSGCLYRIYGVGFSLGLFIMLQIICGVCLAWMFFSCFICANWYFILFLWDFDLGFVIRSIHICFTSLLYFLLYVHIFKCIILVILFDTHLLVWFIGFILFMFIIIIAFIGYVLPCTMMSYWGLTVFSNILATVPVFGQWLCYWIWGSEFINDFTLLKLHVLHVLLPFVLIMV

As for `CC1CS(=O)(=O)CCN1/N=C/c1ccc([N+](=O)[O-])o1` (stereo not drawn) [NFX, nifurtimox], the “discontinuation of treatment prior to completion due to adverse side-effects” value in [1] is recorded as at most 43%.
As to `COc1ccccc1-c1c(C)[nH]c2nc(N)nc(C)c12` [Compound 1, 5-(2-methoxyphenyl)-4,6-dimethyl-7H-pyrrolo[2,3-d]pyrimidin-2-amine], the EC50 in data set [2] (setting [10]) is 316 nM; in data set [2] (read-out: Amastigotes EC50), 320 nM; in the data set with HepG2 cells (read-out: HepG2 EC50), above 100000 nM; in the data set on Vero host cells (read-out: Vero EC50), above 50000 nM; in the data set with Vero host cells (setting [11]) it was above 31600 nM; in data set [4] (read-out: Trypomastigotes EC50) it was 250 nM. Further, in [4] (setting [12]), the EC50 is 251 nM. For the same compound, the IC50 on T. cruzi CYP51 was above 100000 nM. The “inhibition of recombinant T. cruzi CYP51” value at T. cruzi CYP51 (direct biochemical assay) was “did not inhibit”. Besides, in data set [3], the solubility at 1 h was found to be 110 µg/mL (≈ 410 µM). For the same compound, the “FaSSIF pH 6.5” value in “FaSSIF solubility assay” is listed as 456 µg/mL. For the same compound, the PFI in “Property Forecast Index” is 6.2. Further, the “Vero pEC50” value in the data set on Vero host cells was below 4.3. In addition, the chromatographic logD in data set [5] came out at 3.2.
For `CC[C@@H]([C@H](C)O)n1ncn(-c2ccc(N3CCN(c4ccc(OC[C@@H]5CO[C@@](Cn6cncn6)(c6ccc(F)cc6F)C5)cc4)CC3)cc2)c1=O` [Posaconazole, reference compound], the EC50 was 2.51 nM in data set [2] (setting [10]); 3 nM in data set [2] (read-out: Amastigotes EC50); above 100000 nM with HepG2 cells (read-out: HepG2 EC50); above 100000 nM in the data set with HepG2 cells (read-out: HepG2 pEC50 (converted)); above 50000 nM in the data set on Vero host cells (read-out: Vero EC50); above 50100 nM in the data set with Vero host cells (setting [11]). For the same compound, the EC50 is above 50000 nM in data set [4] (read-out: Trypomastigotes EC50) and above 50100 nM in data set [4] (setting [12]). In data set [3], this compound came in with a solubility at 1 h of 14 µg/mL (≈ 20 µM). Moreover, the PFI in “Property Forecast Index” is given as 11.1. Moreover, the chromatographic logD in data set [5] was determined as 6.1. Also, the “washout outcome in combination with BNZ” value in data set [6] was “failed to eliminate all parasites”.
Turning to `COc1cc(F)ccc1-c1c(C)n(C)c2nc(N)nc(C)c12` [Compound 5, 5-(4-Fluoro-2-methoxyphenyl)-4,6,7-trimethyl-7H-pyrrolo[2,3-d]pyrimidin-2-amine], the EC50 in data set [7] (read-out: EC50 F222L) was 486 ± 18 nM; in [7] (read-out: EC50 G36C/L197F cytb line) it was 1.2 ± 0.1 nM; in data set [7] (read-out: EC50 G36C/L197I cytb line) it was 37 ± 2 nM; in [7] (read-out: EC50 L197F cytb line), 1.1 ± 0.1 nM; in [7] (read-out: EC50 L197I), 21 ± 0.5 nM; in data set [7] (read-out: EC50 compound 5-resistant clone RES1), 417 ± 11 nM. Besides, the EC50 in data set [7] (read-out: EC50 compound 5-resistant clone RES2) stood at 585 ± 30 nM; in data set [7] (read-out: EC50 compound 5-resistant clone RES3), 635 ± 33 nM; in data set [8] (read-out: EC50 wild-type) it was 2.4 ± 0.1 nM; in data set [8] (read-out: EC50 wild-type epimastigotes), 11.3 ± 0.5 nM; in data set [8] (Table 2, wild-type epimastigotes, read-out: EC50 WT) it was 2 ± 0.1 nM. Further, the “fold change from WT, L197I” value in [7] (compound 3-resistant line (L197I)) turned out to be 10 fold. In addition, the “fold change from WT, F222L” value in data set [7] (compound 5-resistant line (F222L)) worked out at 224 fold. Moreover, in data set [7] (versus wild-type), the “cross-resistance of G36C and L197I epimastigotes” value is 9 fold. Besides, in data set [9], inhibition was half-maximal at 1 ± 0.2 nM (IC50).
